Test results as given in patent US9381191B2, “Imidazopyridine derivatives useful in treating diabetes” (METABRAIN RESEARCH, priority 2012, dated 2016).

System: isolated rat hepatocytes
Assay: Hepatic production of glucose, 3 h incubation
Format: cell-based, Wistar rat
Conditions: for activity at 50 µM / activity at 100 µM: Hepatocyte, rat hepatocytes; for activity at 50 µM: read-out: HGP % of ctrl @ 50 μM; for activity at 100 µM: read-out: HGP % of ctrl @ 100 μM
Experimental: The hepatocytes are isolated from Wistar rat liver having fasted for 24 h after perfusion of collagenase in the portal vein. 1) The freshly isolated hepatocytes are sown in 6-well plates coated with collagen and containing an adhesion medium (Williams Medium). After adhesion, the medium is replaced with RPMI 1640 medium without any glucose, containing hydrocortisone (7·10^−5M) for a duration from 16 to 18 h. The next day, the glucose hepatic production test is conducted in a Krebs medium for 3 h. The basal conditions are cells incubated with only Krebs, the stimulated conditions are the cells placed in Krebs+lactate+pyruvate, the produced conditions are the cells exposed to chemical compounds in a Krebs/lactate/pyruvate medium. In the case when the compounds are dissolved in DMSO, all the conditions of the tests are met in the presence of a final concentration of 0.1% DMSO. The positive control of the test is the mercaptopicolinate known for its inhibitory action on hepatic production of glucose via the phosphoenolpyruvate carboxykinase. For short term treatments, the compounds are incubated for 3 h. For long term treatments, the compounds are incubated for 20 h at the moment when the hepatocytes are cultivated in RPMI and then added during the hepatic production test for 3 h. At the end of the 3 hours of incubation, the supernatant is recovered for measurement of glucose with a colorimetric method using glucose oxidase. The cells are lysed with a 0.1% NaOH aqueous solution in order to measure the amount of protein with the Lowry method. The results are expressed in mmol of glucose per mg of protein.

Compound | activity at 50 µM [%] | activity at 100 µM [%] | inhibition of hepatic production of glucose (dose of 100 μM) | inhibition of hepatic production of glucose (with two doses)
O=C([O-])COCc1nc2ccccn2c1C#Cc1cccc(C(F)(F)F)c1.[Na+] [Derivative 51, sodium 2-((3-((3-(trifluoromethyl)-phenyl)ethynyl)imidazo[1,2-a]pyridin-2-yl)methoxy)acetate] | 61 | 45 | strongest inhibitions | –
CCOC(=O)COCc1nc2ccccn2c1C#Cc1cccc(C(F)(F)F)c1 [Derivative 7, ethyl 2-((3-((3-(trifluoromethyl)-phenyl)ethynyl)imidazo[1,2-a]pyridin-2-yl)methoxy)acetate] | 55 | 45 | – | strongest inhibitions
CCOC(=O)COCc1nc2ccccn2c1C#Cc1cccc(F)c1 [Derivative 23, ethyl 2-((3-((3-fluorophenyl)-ethynyl)imidazo[1,2-a]pyridin-2-yl)methoxy)acetate] | 95 | 73 | – | –
COc1cccc(C#Cc2c(COCC(=O)O)nc3ccccn23)c1 [Derivative 30, 2-((3-((3-methoxyphenyl)ethynyl)-imidazo[1,2-a]pyridin-2-yl)methoxy)acetic acid] | 74 | 60 | – | –
CN(C)CCNC(=O)c1ccccc1OCc1nc2ccccn2c1C#Cc1ccc(F)cc1 [Derivative 95, N-(2-(dimethylamino)ethyl)-2-((3-((4-fluorophenyl)ethynyl)-imidazo[1,2-a]pyridin-2-yl)methoxy)benzamide] | 65 | 62 | – | –
O=C(O)c1ccccc1OCc1nc2ccccn2c1C#Cc1cccc(C(F)(F)F)c1 [Derivative 89, 2-((3-((3-(trifluoromethyl)phenyl)-ethynyl)imidazo[1,2-a]pyridin-2-yl)methoxy)benzoic acid] | 78 | 33 | strongest inhibitions | –
O=C(O)CSCc1nc2ccc(Cl)cn2c1C#Cc1cccc(OC(F)(F)F)c1 [Derivative 119, 2-[[6-chloro-3-[2-[3-(trifluoro-methoxy)phenyl]ethynyl]imidazo [1,2-a]pyridin-2-yl]methyl-sulfanyl]acetic acid] | 73 | – | – | –
CCOC(=O)COCc1nc2ccccn2c1C#Cc1ccc(OC)cc1 [Derivative 4, ethyl 2-((3-((4-methoxyphenyl)-ethynyl)-imidazo[1,2-a]pyridin-2-yl)-methoxy)acetate] | 81 | 74 | – | –
CCOC(=O)CSCc1nc2ccccn2c1C#Cc1cccc(OC(F)(F)F)c1 [Derivative 109, ethyl 2-[[3-[2-[3-(trifluoromethoxy)-phenyl]ethynyl]imidazo[1,2-a]pyridin-2-yl]methylsulfanyl]acetate] | 80 | 61 | – | –
O=C(O)COCc1nc2ccccn2c1C#Cc1cccc(OC(F)(F)F)c1 [Derivative 29, 2-((3-((3-(trifluoromethoxy)phenyl)-ethynyl)imidazo[1,2-a]pyridin-2-yl)methoxy)acetic acid] | 63 | 40 | strongest inhibitions | –
O=C(O)c1cccc(OCc2nc3ccccn3c2C#Cc2ccccc2)c1 [Derivative 93, 3-((3-(phenylethynyl)imidazo[1,2-a]pyridin-2-yl)methoxy) benzoic acid] | 26 | 19 | – | strongest inhibitions
O=C(O)CSCc1nc2ccccn2c1C#Cc1cccc(C(F)(F)F)c1 [Derivative 115, 2-[[3-[2-[3-(trifluoromethyl)phenyl]-ethynyl]imidazo[1,2-a]pyridin-2-yl]methylsulfanyl]acetic acid] | 94 | 54 | strongest inhibitions | –
O=C(NO)c1ccccc1OCc1nc2ccccn2c1C#Cc1ccc(F)cc1 [Derivative 96, 2-((3-((4-fluorophenyl)ethynyl)-imidazo[1,2-a]pyridin-2-yl)-methoxy)-N-hydroxybenzamide] | 81 | 66 | – | –
COC(=O)c1ccccc1OCc1nc2ccccn2c1C#Cc1cccc(C(F)(F)F)c1 [Derivative 77, methyl 2-((3-((3-(trifluoromethyl)-phenyl)ethynyl)imidazo[1,2-a]pyridin-2-yl)methoxy)benzoate] | 87 | 50 | strongest inhibitions | –
O=C(O)c1ccc(OCc2nc3ccccn3c2C#Cc2cccc(C(F)(F)F)c2)cc1 [Derivative 90, 4-((3-((3-(trifluoromethyl)phenyl)-ethynyl)imidazo[1,2-a]pyridin-2-yl)methoxy)benzoic acid] | 77 | 27 | strongest inhibitions | –
CCOC(=O)COCc1nc2ccccn2c1C#Cc1ccc(F)c(F)c1 [Derivative 10, ethyl 2-((3-((3,4-difluorophenyl)-ethynyl)imidazo[1,2-a]pyridin-2-yl)methoxy)acetate] | 86 | 71 | – | –
O=C(CSCc1nc2ccccn2c1C#Cc1cccc(OC(F)(F)F)c1)Nc1cccnc1 [Derivative 126, N-(3-pyridyl)-2-[[3-[2-[3-(trifluoromethoxy)phenyl]ethynyl]imidazo[1,2-a]pyridin-2-yl]methylsulfanyl]acetamide] | 72 | 68 | – | –
CCOC(=O)CSCc1nc2ccccn2c1C#Cc1cccc(C(F)(F)F)c1 [Derivative 108, ethyl 2-[[3-[2-[3-(trifluoromethyl)-phenyl]ethynyl]imidazo[1,2-a]pyridin-2-yl]methylsulfanyl]acetate] | 89 | 64 | – | –
O=C(O)COCc1nc2ccccn2c1C#Cc1cccc(OC(F)F)c1 [Derivative 35, 2-((3-((3-(difluoromethoxy)phenyl)-ethynyl)imidazo[1,2-a]pyridin-2-yl)methoxy)acetic acid] | 73 | 64 | – | –
O=C(O)CSCc1nc2ccccn2c1C#Cc1cccc(OC(F)(F)F)c1 [Derivative 116, 2-[[3-[2-[3-(trifluoromethoxy)-phenyl]ethynyl]imidazo[1,2-a]pyridin-2-yl]methylsulfanyl] acetic acid] | 88 | 64 | – | –
CC1(C)COC(=O)C1OCc1nc2ccccn2c1C#Cc1cccc(C(F)(F)F)c1 (stereo not shown) [Derivative 99, 4,4-dimethyl-3-[[3-[2-[3-(trifluoromethyl)phenyl]ethynyl]imidazo[1,2-a]pyridin-2-yl]methoxy]-tetrahydrofuran-2-one] | 85 | 68 | – | –
